Measured values from patent US20250042848A1, “DEUTERATED FUNCTIONALIZED DERIVATIVES OF alpha-ALANINE, IN [sequence] FOR THE TREATMENT OF NEUROLOGICAL DISEASES” (UNIWERSYTET JAGIELLONSKI, priority 2021, published 2025).

How the values were obtained:
[1] = system: maximal electroshock seizures in mice; assay: Maximal electroshock seizure test (MES); type: in vivo
Method: (§1) Initial screening was performed on groups of 4 mice. The mean effective dose (ED50) in a given test and the neurotoxic dose in the rotarod test (TD50) were estimated on the basis of the results obtained on 3-4 groups of animals consisting of 6 animals.
In the maximal electroshock seizure test (MES), the seizures were induced by 500 V, 25 mA electrical stimulus of 0.2 s in duration. The electrical pulse was generated using an electric shock generator (Rodent shocker, Type 221, Hugo Sachs Elektronik, Germany) and delivered to the animal using electrodes placed on the auricles. The study was conducted 30 minutes/2 hours after intraperitoneal administration of the compounds at various doses. During the experiment, the number of animals that experienced a seizure episode in the form of hindlimb tonic extension was counted (Łuszczki, J.J. et al. Fundam. Clin. Pharmacol. 2008, 22, 69-74).
(§2) The ED50 (effective dose) and TD50 (toxic dose) values along with the corresponding 95% confidence limits were calculated based on the Litchfield and Wilcoxon method (Litchfield, J.T.; Wilcoxon, F. J. Pharmacol. Exp. Ther. 1949, 96, 99-113). To perform a statistical evaluation of the results in the scPTZ test, one-way ANOVA variance analysis followed by Dunnett's post hoc test were used. The values were considered statistically significant if p<0.05.

[2] = system: psychomotor seizures induced by a 32 mA, 6 Hz stimulus in mice; assay: Psychomotor seizure test 6 Hz (32 mA); type: in vivo
Method: as §1
(§3) In the psychomotor seizure test (6 Hz test), seizures were induced by a 32 mA and/or 44 mA electrical stimulus of a frequency of 6 pulses per second. An electrical pulse was generated using an electric shock generator (ECT Unit 57800; Ugo Basile, Gemonio, Italy) and delivered to the animal using corneal electrodes. Before starting the test, the eye surface was gently moistened with a solution of local anesthetic (1% lidocaine solution). The study was conducted 30 minutes/2 hours after intraperitoneal administration of the compounds at various doses. An electrical stimulus was delivered continuously for a period of 3 seconds, followed by observation of the animal for a period of 10 seconds. During the experiment, the number of animals with an episode of psychomotor convulsions was counted: motor inhibition, staggering, maintaining a sitting posture, forelimb clonus, twitching of the vibrissae and Straub-tail were observed (Leclercq, K.; Kaminski, R.M. Epilepsia 2015, 56, 310-318).
as §2

[3] = system: psychomotor seizures induced by a 44 mA, 6 Hz stimulus in mice; assay: Psychomotor seizure test 6 Hz (44 mA); type: in vivo; conditions: in mg/kg
Method: as §1, §3, §2

[4] = system: spontaneous locomotor activity of mice; conditions: mouse, in vivo
Method: For this purpose, the number of light beam crossings in the cages was counted in each group of animals during a 30-minute observation.
The experiments were carried out on male albino mice (CD-1) weighing 25-30 g, provided by an accredited animal facility. All procedures were performed in accordance with the applicable Polish and European guidelines on the ethics of research on animals, after obtaining the appropriate approval. The substance was administered intraperitoneally after suspension in a 1% Tween 80 solution, as single injections of 0.1 mL/10 g b.w., 30 minutes before a given test.
The assessment of the influence of the tested compound on the spontaneous locomotor activity of animals (assessment of the sedative or activating effect) was carried out in accordance with the methodology described in the scientific literature (Mogilski et al. Inflamm. Res. 2017, 66, 79-95), using a cage with dimensions 40×40×31 cm (Activity Cage; Ugo Basile, Gemonio VA, Italy). The compound was administered 30 minutes before the experiment. The number of light beam crossings was counted in each group during the next 30 min at 10-minute intervals. The study group consisted of 10 animals.

[5] = system: capsaicin-induced pain in mice; assay: Capsaicin-induced pain model; type: in vivo
Method: This test evaluated the licking and/or biting time of the hind paw after intraplantar injection of 1.6 μg of capsaicin in a constant volume of 20 μL. Observation was carried out in the period of 5 minutes after capsaicin administration. Inhibition of the nociceptive response —shortening the time of licking and biting the paw, was a measure of the antinociceptive activity of the tested compound.
(§4) All tests/models were performed based on procedures described in the specialist literature: formalin test (Beirith et al. Eur. J. Pharmacol. 1998, 345, 233-245), capsaicin-induced pain model (Mogilski et al. Pharmacol. Biochem. Behav. 2015, 133, 99-110), oxaliplatin-induced neuropathic pain model-von Frey's test (Sałat et al. Pharmacol. Biochem. Behav. 2014, 122, 173-181), streptozotocin-induced diabetic neuropathic pain model-von Frey's test (Sałat et al. Neuropharmacology 2017, 125, 181-188; Tanabe et al. J. Pharmacol. Sci. 2008, 107, 213-220). The test group consisted of 8-10 animals.

[6] = system: formalin-induced pain in mice; assay: Formalin test (tonic pain); type: in vivo; conditions: for nociceptive response, first phase of the formalin test, % of the baseline (control): phase I (0-5 min); for nociceptive response, second phase of the formalin test, % of baseline (control): phase II (15-30 min); for ED50 (dose reducing the nociceptive response by 50%), formalin test: i.p.
Method: Pain was induced with a chemical agent by intraplantar injection of 2.5% formalin solution in mice in a constant volume of 20 μL. The animals were placed in separate, transparent observation chambers for a period of 30 minutes. The measured value was the total licking and biting time of the formalin-treated paw. The nociceptive response was counted in two time intervals: 0-5 minutes from formalin injection (phase I of the test-acute pain) and 15-30 minutes from its administration (phase II of the test-inflammatory pain). The observed inhibition of the nociceptive response-shortening the time of licking and biting the paw, was interpreted as an analgesic effect of the tested compound.
as §4

[7] = system: streptozotocin-induced mechanical allodynia in mice; assay: Streptozotocin-induced diabetic neuropathic pain model, von Frey test; type: in vivo; conditions: three weeks after STZ
Method: The response was tested 3 weeks after the streptozotocin injection. […] Importantly, d4-(R)-1 completely abolished the symptoms of developing sensory neuropathy at all doses.
as §4

[8] = system: oxaliplatin-induced mechanical allodynia in mice; assay: Oxaliplatin (OXPT)-induced peripheral neuropathy model, von Frey test; type: in vivo
Method: The reaction was observed before administration and 3 hours (early phase) and 7 days (late phase) after administration of OXPT.
as §4

[9] = 0.5 h after i.p. administration
[10] = 2.0 h after i.p. administration
[11] = 30 mg/kg, seven days after OXPT (late phase)
[12] = 30 mg/kg, three hours after OXPT (early phase)
[13] = 60 mg/kg, seven days after OXPT (late phase)
[14] = 60 mg/kg, three hours after OXPT (early phase)
[15] = 90 mg/kg, seven days after OXPT (late phase)
[16] = 90 mg/kg, three hours after OXPT (early phase)

## [2H]C1([2H])C(=O)N([C@H](C)C(=O)NCc2ccccc2)C(=O)C1([2H])[2H] [d4-(R)-1, (R)-N-benzyl-2-(2,5-dioxopyrrolidin-1-yl-3,3,4,4-d4) propanamide]
[1]; [9]
  ED50 MES: 43.7 mg/kg
[1]; [10]
  ED50 MES: 50.1 mg/kg
[2]; [9]
  ED50 6 Hz (32 mA): 18.6 mg/kg
[2]; [10]
  ED50 6 Hz (32 mA): 46.4 mg/kg
[3]; [9]
  ED50 6 Hz (44 mA): 79.2
[3]; [10]
  ED50 6 Hz (44 mA): 125.3
[4]
  locomotor activity (light beam crossings in 30 min), % of the initial value (vehicle): 46.90%
[5]; i.p.
  ED50, capsaicin test: 17.5 mg/kg
[5]; i.p. 30 mg/kg
  nociceptive response in the capsaicin test, % of the initial value (control): 31.77%
[5]; i.p. 60 mg/kg
  nociceptive response in the capsaicin test, % of the initial value (control): 38.72%
[5]; i.p. 90 mg/kg
  nociceptive response in the capsaicin test, % of the initial value (control): 10.90%
[6]; i.p. 30 mg/kg
  nociceptive response, first phase of the formalin test, % of the baseline (control): 46.80%
  nociceptive response, second phase of the formalin test, % of baseline (control): 46.04%
[6]; i.p. 60 mg/kg
  nociceptive response, first phase of the formalin test, % of the baseline (control): 49.85%
  nociceptive response, second phase of the formalin test, % of baseline (control): 56.06%
[6]; i.p. 90 mg/kg
  nociceptive response, first phase of the formalin test, % of the baseline (control): 64.40%
  nociceptive response, second phase of the formalin test, % of baseline (control): 43.36%
[6]; i.p. 120 mg/kg
  nociceptive response, first phase of the formalin test, % of the baseline (control): 39.68%
  nociceptive response, second phase of the formalin test, % of baseline (control): 30.24%
[6]; phase I
  ED50 (dose reducing the nociceptive response by 50%), formalin test: 97.9 mg/kg
[6]; phase II
  ED50 (dose reducing the nociceptive response by 50%), formalin test: 71.5 mg/kg
[7]; 30 mg/kg i.p.
  pain threshold (von Frey): 6.80 ± 0.54 g
  pain threshold, % of baseline: 115.4%
[7]; 60 mg/kg i.p.
  pain threshold (von Frey): 8.64 ± 0.72 g
  pain threshold, % of baseline: 146.6%
[7]; 90 mg/kg i.p.
  pain threshold (von Frey): 9.40 ± 0.61 g
  pain threshold, % of baseline: 159.6%
[8]; [11]
  pain threshold (von Frey): 6.38 ± 0.50 g
  pain threshold, % of baseline: 123.9%
[8]; [12]
  pain threshold (von Frey): 5.73 ± 0.40 g
  pain threshold, % of baseline: 111.3%
[8]; [13]
  pain threshold (von Frey): 7.34 ± 0.42 g
  pain threshold, % of baseline: 119.2%
[8]; [14]
  pain threshold (von Frey): 5.33 ± 0.427 g
  pain threshold, % of baseline: 86.5%
[8]; [15]
  pain threshold (von Frey): 7.04 ± 0.31 g
  pain threshold, % of baseline: 110.5%
[8]; [16]
  pain threshold (von Frey): 7.23 ± 0.42 g
  pain threshold, % of baseline: 113.5%
